These results are taken from patent US10106588B2, “Nucleic acids encoding peptides for treating wounds, anti-angiogenic compounds and uses thereof” (Trustees of Tufts College, priority 2008, dated 2018).

The test system of assay [1] is Human Microvascular Endothelial Cells (HMVEC). In words: in vitro angiogenesis assay: tubule formation from HMVEC in Matrigel. The format is cell-based. The conditions noted are these: for induction of angiogenesis in vitro: general statement, no concentration. The method, then:
FIG. 1 is an illustration of a comparison 0.5 nM of the peptide of SEQ ID NO: 1 (“UN1”) to a serum control sample in the formation of tubules from Human Microvascular Endothelial Cells (HMVEC) in Matrigel™ after 3 hours.
FIG. 2 is a graph illustrating a measure of angiogenesis in terms of total process length in Human Microvascular Endothelial Cells (HMVEC) with 0.4 nM and 250 nM of the SEQ ID NO: 1 (“UN1”).
FIG. 3 is a graph illustrating a measure of angiogenesis in terms of total process length in Human Microvascular Endothelial Cells (HMVEC) with 0.4 nM and 250 nM of the peptide of SEQ ID NO: 3 (“UN3”).
(§1) Each of the three peptide sequences were then analyzed for activity via (1) in vitro angiogenesis assays where blood vessel formation in vitro was quantified; (2) in vitro response to injury analyses, including quantitative analysis, of migration in response to injury; and (3) in vitro quantitation of cell proliferation assays. The results of experiments performed are illustrated in FIGS. 1 to 4.
The peptide (SEQ. ID NO: 1 (“UN1”)) was compared to each of VEGF 4 ng/ml and Serum Control in an in vitro angiogenesis analysis.
The peptide (SEQ ID NO: 3 (“UN3”)) was also compared to VEGF and Serum Control in in vitro angiogenesis analysis.

The test system of assay [2] is Normal Human Epithelial Keratinocyte (NHEK). In words: in vitro response to injury: keratinocyte migration / relative wound closure. The format is cell-based. As to conditions: for relative wound closure via NHEK migration: 0.5 nM of each peptide, compared to control (FIG. 4); for keratinocyte migration in response to injury in vitro: general statement, no concentration. The method, then:
FIG. 4 is a graph illustrating a measure of relative wound closure via Normal Human Epithelial Keratinocyte (NHEK) migration after exposure to 0.5 nM of each of the peptides of SEQ ID NOs: 1, 2, and 3 (“UN1,” “UN2,” and “UN3” respectively).
as §1
In addition, each of the three peptides of the invention were compared with regard to adult normal human epithelial keratinocyte migration.

Where no end group is shown, it is not given here.

Take ELLESYIDR [UN1]: the “formation of tubules (number and lengths of processes or tubules), in vitro angiogenesis” value in assay [1] (0.5 nM peptide, HMVEC in Matrigel, after 3 hours, versus serum control (FIG. 1)) is “significant induction of in vitro angiogenesis”. In assay [1], the “induction of angiogenesis in vitro” value is reported as “induce angiogenesis in vitro”. Besides, in assay [1] (in comparison to Serum Control and VEGF 4 ng/ml (FIGS. 1 and 2)), the tubule formation result is reported as “induced significant tubule formation”. Further, the process length result in assay [1] (in comparison to Serum Control and VEGF 4 ng/ml, 0.4 nM and 250 nM (FIG. 2)) was “significant tubule formation and process length”. In assay [2], the “relative wound closure via NHEK migration” value is “significantly better” and the “keratinocyte migration in response to injury in vitro” value was “promote keratinocyte migrations”.

On to ELLESYIDRPTATSEYQTFFNPR [UN3], for which the “induction of angiogenesis in vitro” value in assay [1] was “induce angiogenesis in vitro”. The process length result in assay [1] (in comparison to VEGF, peptide at 250 nM (FIG. 3)) is “significant increase in process length”; in assay [1] (in comparison with Serum Control, 0.4 nM and 250 nM (FIG. 3)) it was “significant increase in process length”. Also, the “relative wound closure via NHEK migration” value in assay [2] is reported as “significantly better”. The “keratinocyte migration in response to injury in vitro” value in assay [2] is recorded as “promote keratinocyte migrations”.

With TATSEYQTFFNPR [UN2], the “relative wound closure via NHEK migration” value in assay [2] is “significantly better”.
